Results as given in patent US10669284B2, “Fused thiazolopyrimidine derivatives as MNKS inhibitors” (LIFEARC, priority 2015, dated 2020).
Read-outs that look alike come from different tables or passages of the source.

Columns and labels:
[1] = system: phosphorylation of eIF4E at ser209 in MV4.11 cell line; assay: MNK cellular activity phospho-eIF4E detection assay (Alphascreen Surefire); format: cell-based; settings: Homo sapiens
Outline: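 AlphaScreen SureFire sandwich-immunoassay readout of phospho-eIF4E Ser209 in lysed MV4.11 cells; acceptor then donor beads, each 1.5 hr at room temperature. Signal normalised to untreated DMSO-only controls; duplicate curves, values averaged over at least 2 independent experiments.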

Full-length human MNK2 = biological target: T1, Full-length human MNK2 (Homo sapiens, UniProt Q9HBH9, T379D); assay: MNK2 biochemical IC50 assay (Caliper Mobility Shift Assay)
T1 construct: GST (N); purchased Carna Biosciences 02-146; host or cells: baculovirus expression system
T1 sequence (Q9HBH9 whole entry T379D): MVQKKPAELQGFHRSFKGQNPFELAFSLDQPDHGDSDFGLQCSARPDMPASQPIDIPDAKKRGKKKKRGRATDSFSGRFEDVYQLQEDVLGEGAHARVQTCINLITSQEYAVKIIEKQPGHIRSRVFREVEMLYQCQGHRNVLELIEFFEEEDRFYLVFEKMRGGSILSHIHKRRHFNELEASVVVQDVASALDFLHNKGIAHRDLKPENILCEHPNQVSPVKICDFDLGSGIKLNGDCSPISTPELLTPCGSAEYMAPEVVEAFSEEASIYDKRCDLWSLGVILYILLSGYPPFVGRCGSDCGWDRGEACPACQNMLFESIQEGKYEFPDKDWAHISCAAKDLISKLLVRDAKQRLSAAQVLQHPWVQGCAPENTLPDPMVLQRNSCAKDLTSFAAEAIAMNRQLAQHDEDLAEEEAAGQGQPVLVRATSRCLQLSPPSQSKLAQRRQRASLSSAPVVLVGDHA

Full-length human MNK1 = biological target: T2, Full-length human MNK1 (Homo sapiens, UniProt Q9BUB5, T385D); assay: MNK1 biochemical IC50 assay (Caliper Mobility Shift Assay); settings: read-out: P(IC50) MNK1 (converted)
T2 construct: GST (N); purchased Carna Biosciences 02-145; host or cells: baculovirus expression system
T2 sequence (Q9BUB5 1-424 isoform Q9BUB5-2 T344D): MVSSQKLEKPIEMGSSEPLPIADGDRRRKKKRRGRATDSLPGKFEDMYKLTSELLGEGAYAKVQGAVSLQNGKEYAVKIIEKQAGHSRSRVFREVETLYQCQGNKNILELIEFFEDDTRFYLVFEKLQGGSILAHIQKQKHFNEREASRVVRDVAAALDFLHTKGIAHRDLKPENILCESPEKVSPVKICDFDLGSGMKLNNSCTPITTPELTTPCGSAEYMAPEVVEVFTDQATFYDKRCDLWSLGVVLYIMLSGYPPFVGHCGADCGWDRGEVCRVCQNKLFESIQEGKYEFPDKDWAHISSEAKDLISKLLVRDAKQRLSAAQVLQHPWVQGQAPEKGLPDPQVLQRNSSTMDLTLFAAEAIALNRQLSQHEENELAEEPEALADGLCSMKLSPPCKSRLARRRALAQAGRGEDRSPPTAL

[2] = MV4.11 cell line, phospho-eIF4E (ser209) Alphascreen Surefire, read-out: P(IC50) elF4E (converted)
[3] = read-out: P(IC50) MNK2 (converted)

Structure (SMILES) | IC50 [1, 2] [nM] | IC50 (Full-length human MNK2; [3]) [nM] | IC50 (Full-length human MNK1) [nM] | IC50 ([1]; MV4-11, read-out: P(IC50) elF4E) [nM] | IC50 (Full-length human MNK2) [nM]
CN1CCC(NC(=O)c2nc3c(N4CCc5cc(F)ccc54)ncnc3s2)CC1 [Example 67, 7-(5-fluoroindolin-1-yl)-N-(1-methyl-4-piperidyl)thiazolo[5,4-d]pyrimidine-2-carboxamide] | 3.98 | 3.16 | 3.98 | – | –
CC1Cc2ccccc2N1c1ncnc2sc(C(=O)NC3CCN(C)CC3)nc12 (stereo not drawn) [Example 123, 7-(2-Methylindolin-1-yl)-N-(1-methyl-4-piperidyl)thiazolo[5,4-d]pyrimidine-2-carboxamide] | 20 | 15.8 | 25.1 | – | –
O=C(NCCCn1cccn1)c1nc2c(N3CCc4cc(F)ccc43)ncnc2s1 [Example 75, 7-(5-fluoroindolin-1-yl)-N-(3-pyrazol-1-ylpropyl)thiazolo[5,4-d]pyrimidine-2-carboxamide] | 15.8 | 3.16 | 3.16 | – | –
CN(C)CCNc1nc2c(N3CCc4cc(F)ccc43)ncnc2s1 [Example 86] | 251 | 79.4 | 63.1 | – | –
O=C(NCC1CCNCC1)c1nc2c(N3CC(CCO)c4ccccc43)ncnc2s1 (stereo not drawn) [Example 136] | 6.31 | 5.01 | 7.94 | – | –
O=C(NCC1CCNCC1)c1nc2c(Nc3ccc(F)cc3OC3CCCC3)ncnc2s1 [Example 51, 7-[2-(cyclopentoxy)-4-fluoro-anilino]-N-(4-piperidylmethyl)thiazolo[5,4-d]pyrimidine-2-carboxamide] | 126 | 100 | 126 | – | –
CN(C)CCCNC(=O)c1nc2c(Nc3ccc(F)cc3O[C@H]3CCCC[C@@H]3O)ncnc2s1 [Example 19, N-[3-(dimethylamino)propyl]-7-[4-fluoro-2-[(1S,2S)-2-hydroxycyclohexoxy]anilino]thiazolo[5,4-d]pyrimidine-2-carboxamide] | 251 | 794 | 794 | – | –
CC(C)Oc1cc(F)ccc1Nc1ncnc2sc(C(=O)NC3CNC3)nc12 [Example 28, N-(azetidin-3-yl)-7-{[4-fluoro-2-(propan-2-yloxy)phenyl]amino}[1,3]thiazolo[5,4-d]pyrimidine-2-carboxamide] | 79.4 | 79.4 | 126 | – | –
CC1(C)CN(c2ncnc3sc(C(=O)NCC4CCNCC4)nc23)c2ccccc21 [Example 161] | – | – | 3.16 | 3.16 | 2.51
CC(C)Oc1cc(F)ccc1Nc1ncnc2sc(C(=O)NC3CCN(C)CC3)nc12 [Example 32, 7-{[4-fluoro-2-(propan-2-yloxy)phenyl]amino}-N-(1-methylpiperidin-4-yl)[1,3]thiazolo[5,4-d]pyrimidine-2-carboxamide] | 39.8 | 39.8 | 50.1 | – | –
CC(C)Oc1cc(F)ccc1Nc1ncnc2sc(C(=O)NC3CC4CCC(C3)N4C(=O)OC(C)(C)C)nc12 (stereo not drawn) [Example 6, tert-butyl 3-[[7-(4-fluoro-2-isopropoxy-anilino)thiazolo[5,4-d]pyrimidine-2-carbonyl]amino]-8-azabicyclo[3.2.1]octane-8-carboxylate] | 251 | 398 | 794 | – | –
O=C(NC1CCOCC1)c1nc2c(N3CCc4cc(C(F)(F)F)ccc43)ncnc2s1 [Example 112, N-(tetrahydro-2H-pyran-4-yl)-7-(5-(trifluoromethyl)indolin-1-yl)thiazolo[5,4-d]pyrimidine-2-carboxamide] | 316 | 126 | 200 | – | –
O=C(NC1CCOCC1)c1nc2c(N3CC(CCO)c4ccccc43)ncnc2s1 (stereo not drawn) [Example 110, 7-[3-(2-hydroxyethyl)indolin-1-yl]-N-tetrahydropyran-4-yl-thiazolo[5,4-d]pyrimidine-2-carboxamide] | 10 | 10 | 10 | – | –
O=C(NC1COC1)c1nc2c(N3CCc4ccccc43)ncnc2s1 [Example 100, 7-indolin-1-yl-N-(oxetan-3-yl)thiazolo[5,4-d]pyrimidine-2-carboxamide] | 15.8 | 20 | 25.1 | – | –
O=C(NC1CCOCC1)c1nc2c(N3CC4(CCCC4)c4ccccc43)ncnc2s1 [Example 41, 7-(Spiro[cyclopentane-1,3′-indol]-1′(2′H)-yl)-N-(tetrahydro-2H-pyran-4-yl)[1,3]thiazolo[5,4-d]pyrimidine-2-carboxamide] | 20 | 12.6 | 25.1 | – | –
CCOc1cc(F)ccc1Nc1ncnc2sc(C(=O)NCC3CCNCC3)nc12 [Example 53, 7-(2-ethoxy-4-fluoro-anilino)-4-(4-piperidylmethyl)thiazolo[5,4-d]pyrimidine-2-carboxamide] | 126 | 126 | 100 | – | –

Structure (SMILES) | IC50 [1, 2] [nM] | IC50 (Full-length human MNK2; [3]) [nM] | IC50 (Full-length human MNK1) [nM] | IC50 ([1]; MV4-11, read-out: P(IC50) elF4E) [nM] | IC50 (Full-length human MNK2) [nM]
O=C(NCC1CCNCC1)c1nc2c(Nc3ccc4[nH]ncc4c3)ncnc2s1 [Example 50, 7-(1H-indazol-5-ylamino)-N-(4-piperidylmethyl)thiazolo[5,4-d]pyrimidine-2-carboxamide] | 794 | 31.6 | 20 | – | –
CC(C)Oc1ccccc1Nc1ncnc2sc(C(=O)NCCCN(C)C)nc12 [Example 23, N-[3-(Dimethylamino)propyl]-7-(2-isopropoxyanilino)thiazolo[5,4-d]pyrimidine-2-carboxamide] | 63.1 | 63.1 | 100 | – | –
CN1CCN(CCC2CN(c3ncnc4sc(C(=O)NC5CCOCC5)nc34)c3ccc(F)cc32)CC1 (stereo not drawn) [Example 150, 7-[5-fluoro-3-[2-(4-methylpiperazin-1-yl)ethyl]indolin-1-yl]-N-tetrahydropyran-4-yl-thiazolo[5,4-d]pyrimidine-2-carboxamide] | 25.1 | 63.1 | 63.1 | – | –
CNCCC1CN(c2ncnc3sc(C(=O)NC4CCOCC4)nc23)c2ccccc21 (stereo not drawn) [Example 115, 7-[3-[2-(Methylamino)ethyl]indolin-1-yl]-N-tetrahydropyran-4-yl-thiazolo[5,4-d]pyrimidine-2-carboxamide] | 126 | 15.8 | 31.6 | – | –
CC(C)CCNC(=O)c1nc2c(N3CC(CCN)c4ccccc43)ncnc2s1 (stereo not drawn) [Example 165, 7-[3-(2-aminoethyl)indolin-1-yl]-N-isopentyl-thiazolo[5,4-d]pyrimidine-2-carboxamide] | 15.8 | 10 | 10 | – | –
O=C(NC1CCOCC1)c1nc2c(N3CCc4cccc(F)c43)ncnc2s1 [Example 90, 7-(7-Fluoroindolin-1-yl)-N-tetrahydropyran-4-yl-thiazolo[5,4-d]pyrimidine-2-carboxamide] | 158 | 126 | 126 | – | –
CNCCCNC(=O)c1nc2c(N3c4ccccc4C[C@@H]3C)ncnc2s1 [Example 131, N-[3-(methylamino)propyl]-7-[(2S)-2-methylindolin-1-yl]thiazolo[5,4-d]pyrimidine-2-carboxamide] | 39.8 | 31.6 | 100 | – | –
O=C(NCC(O)CO)c1nc2c(N3CCc4ccccc43)ncnc2s1 (stereo not drawn) [Example 104] | 10 | 12.6 | 20 | – | –
CN(C)CCCNC(=O)c1nc2c(N3CCc4cccc(F)c43)ncnc2s1 [Example 92, N-[3-(dimethylamino)propyl]-7-(7-fluoroindolin-1-yl)thiazolo[5,4-d]pyrimidine-2-carboxamide] | 251 | 126 | 158 | – | –
CNCCCNC(=O)c1nc2c(N3CC(C)(C)c4ccccc43)ncnc2s1 [Example 159] | 5.01 | 3.16 | 5.01 | – | –
O=C(Nc1ccc(Nc2ncnc3sc(C(=O)NCC4CCNCC4)nc23)cc1)Nc1cccc(C(F)(F)F)c1 [Example 49, N-(4-piperidylmethyl)-7-[4-[[3-(trifluoromethyl)phenyl]carbamoylamino]anilino]thiazolo[5,4-d]pyrimidine-2-carboxamide] | 79.4 | 63.1 | 158 | – | –
CC1(C)CN(c2ncnc3sc(C(=O)NC4CCOCC4)nc23)c2ccc(F)cc21 [Example 105, 7-(5-Fluoro-3,3-dimethyl-indolin-1-yl)-N-tetrahydropyran-4-yl-thiazolo[5,4-d]pyrimidine-2-carboxamide] | 2.51 | 3.16 | 2 | – | –
COc1ccc2c(c1)CCN2c1ncnc2sc(C(=O)NCC3CCNCC3)nc12 [Example 63, 7-(5-methoxyindolin-1-yl)-N-(4-piperidylmethyl)thiazolo[5,4-d]pyrimidine-2-carboxamide] | 39.8 | 63.1 | 79.4 | – | –
CC(C)Oc1cc(F)ccc1Nc1ncnc2sc(C(=O)N3CCC(CN(C)C)CC3)nc12 [Example 35, {4-[(dimethylamino)methyl]piperidin-1-yl}(7-{[4-fluoro-2-(propan-2-yloxy)phenyl]amino}[1,3]thiazolo[5,4-d]pyrimidin-2-yl)methanone] | 316 | 200 | 158 | – | –
CNCCCNC(=O)c1nc2c(N3CCc4cc(F)ccc43)ncnc2s1 [Example 72, 7-(5-fluoroindolin-1-yl)-N-[3-(methylamino)propyl]thiazolo[5,4-d]pyrimidine-2-carboxamide] | 5.01 | 5.01 | 5.01 | – | –
CC(C)Oc1cc(F)ccc1Nc1ncnc2scnc12 [Example 47, N-[4-fluoro-2-(propan-2-yloxy)phenyl][1,3]thiazolo[5,4-d]pyrimidin-7-amine] | 126 | 200 | 251 | – | –
